Results: patent US20210221822A1, “TRICYCLIC DERIVATIVES INHIBITOR, PREPARATION METHOD, AND APPLICATIONS THEREOF” (Jiangsu Hansoh Pharmaceutical Group Co., Ltd., priority 2018, published 2021)

Columns and labels:
PI3Kα = biological target: T1, PI3Kα (Homo sapiens, UniProt P42336); experiment: ADP-Glo lipid kinase assay, PI3Kα kinase activity; type: biochemical
T1 construct: purchased Promega V1721
Summary of the method: (§1)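 ADP-Glo luminescence measured ADP formed by PI3Kα, β, γ or δ (0.1-2 nM working solution) with PIP2:3PS (50 μM added solution) and ATP in HEPES/MgCl2/NaCl/BSA buffer, 90 to 120 min at room temperature. % inhibition was set against DMSO and no-kinase controls, and IC50 came from a four-parameter fit.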

PI3Kδ = biological target: T2, PI3Kδ (Homo sapiens, UniProt O00329); experiment: ADP-Glo lipid kinase assay, PI3Kδ kinase activity; type: biochemical; conditions: 0.1 nM enzyme, 90 min, 100 μM ATP
T2 construct: purchased Carna 11-103
Summary of the method: as §1

[1] = tested on: PI3Kα mutant cancer cells HCC1954 (H1047R); experiment: Cell Titer-Glo proliferation inhibition, HCC1954; type: cell-based; conditions: Homo sapiens, 48 to 96 hours
Method: (§2) Experimental method: The proliferation inhibitory effect of the compounds of the examples on PI3Kα mutant cancer cell lines HCC1954, HGC-27 and MKN1 was determined by Cell Titer-Glo method. The cell lines were cultured in RPMI 1640 medium (Gibco #22400089) containing 10% FBS (Gibco #10091148) and 1% P/S (Hyclone #SV30010) at 37° C. and 5% CO2. Before the experiment, the cells were collected and counted, and then the cell density was adjusted. The cells were inoculated in a white 96-well plate (Corning #3610) at a density of 1000 to 10000 cells/well, and incubated in an incubator at 37° C., 5% CO2 overnight. The compound solution of different concentrations was added, and corresponding vehicle control was set at the same time. The cell plate was further incubated in an incubator at 37° C., 5% CO2 for 48 to 96 hours. The cell plate and its content were equilibrated to room temperature. 20 to 100 μL of Cell Titer-Glo solution (Promega #G7573) was added to each well, and the plate was shaked well and incubated at room temperature in the dark for 5 to 30 minutes. The chemiluminescence value was measured by the BioTek SynergyH1 microplate reader.
(§3) The percentage inhibition data of the well treated by the compounds of the examples was calculated through the vehicle control well on the plate {% inhibition rate=100−(test compound value/vehicle control value)×100}. The IC50 value was calculated by fitting the data of different concentrations and corresponding percentage inhibition rates to a four-parameter nonlinear logic formula with GraphPad prism.

[2] = tested on: PI3Kα mutant cancer cells MKN1 (E545K); experiment: Cell Titer-Glo proliferation inhibition, MKN1; type: cell-based; conditions: Homo sapiens, MKN-1, 48 to 96 hours
Method: as §2, §3

[3] = tested on: PI3Kα mutant cancer cells HGC-27 (E542K); experiment: Cell Titer-Glo proliferation inhibition, HGC-27; type: cell-based; conditions: Homo sapiens, 48 to 96 hours
Method: as §2, §3

[4] = Pharmacokinetic (PK) assay in mice; type: in vivo; conditions: male, Balb/c, mouse, plasma, po, single intragastric 5 mg/kg
Summary of the method: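 Male Balb/c mice received a single intragastric dose of 5 mg/10 ml/kg in 0.5% CMC-Na. Orbital blood was taken at 0.5, 1, 2, 4, 6, 8 and 24 h into K2-EDTA; plasma was acetonitrile-precipitated and analyzed by LC-MS/MS, and PK parameters were calculated.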

T1 sequence (P42336 whole entry): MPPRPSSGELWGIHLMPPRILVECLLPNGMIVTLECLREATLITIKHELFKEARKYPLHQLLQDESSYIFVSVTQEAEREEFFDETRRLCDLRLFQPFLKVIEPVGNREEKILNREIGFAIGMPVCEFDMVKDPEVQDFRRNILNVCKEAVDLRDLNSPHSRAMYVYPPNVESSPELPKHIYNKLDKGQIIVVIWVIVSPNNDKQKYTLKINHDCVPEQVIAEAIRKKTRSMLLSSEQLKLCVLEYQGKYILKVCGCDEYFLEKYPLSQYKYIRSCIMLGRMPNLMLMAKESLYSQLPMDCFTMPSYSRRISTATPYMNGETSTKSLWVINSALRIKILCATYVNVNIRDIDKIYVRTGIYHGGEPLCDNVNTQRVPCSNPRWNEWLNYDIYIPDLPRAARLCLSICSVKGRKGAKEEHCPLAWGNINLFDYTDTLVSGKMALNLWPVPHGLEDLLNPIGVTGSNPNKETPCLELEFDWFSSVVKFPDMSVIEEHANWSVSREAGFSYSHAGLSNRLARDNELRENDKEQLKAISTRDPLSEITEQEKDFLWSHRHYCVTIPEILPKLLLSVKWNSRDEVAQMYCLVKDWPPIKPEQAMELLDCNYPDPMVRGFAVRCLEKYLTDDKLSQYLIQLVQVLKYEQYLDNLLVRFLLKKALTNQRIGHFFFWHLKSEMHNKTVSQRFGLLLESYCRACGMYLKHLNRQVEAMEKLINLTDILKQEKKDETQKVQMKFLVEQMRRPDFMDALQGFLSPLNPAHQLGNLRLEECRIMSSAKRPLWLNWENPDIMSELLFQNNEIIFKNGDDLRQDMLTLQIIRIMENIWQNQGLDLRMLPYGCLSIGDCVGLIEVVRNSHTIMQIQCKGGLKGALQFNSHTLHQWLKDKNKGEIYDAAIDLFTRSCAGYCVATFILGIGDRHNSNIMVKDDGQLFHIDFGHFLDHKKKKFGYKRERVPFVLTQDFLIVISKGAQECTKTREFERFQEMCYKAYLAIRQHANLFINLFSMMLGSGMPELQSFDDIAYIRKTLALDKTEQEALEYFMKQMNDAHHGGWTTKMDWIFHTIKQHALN
T1 sequence (P27986 whole entry partner): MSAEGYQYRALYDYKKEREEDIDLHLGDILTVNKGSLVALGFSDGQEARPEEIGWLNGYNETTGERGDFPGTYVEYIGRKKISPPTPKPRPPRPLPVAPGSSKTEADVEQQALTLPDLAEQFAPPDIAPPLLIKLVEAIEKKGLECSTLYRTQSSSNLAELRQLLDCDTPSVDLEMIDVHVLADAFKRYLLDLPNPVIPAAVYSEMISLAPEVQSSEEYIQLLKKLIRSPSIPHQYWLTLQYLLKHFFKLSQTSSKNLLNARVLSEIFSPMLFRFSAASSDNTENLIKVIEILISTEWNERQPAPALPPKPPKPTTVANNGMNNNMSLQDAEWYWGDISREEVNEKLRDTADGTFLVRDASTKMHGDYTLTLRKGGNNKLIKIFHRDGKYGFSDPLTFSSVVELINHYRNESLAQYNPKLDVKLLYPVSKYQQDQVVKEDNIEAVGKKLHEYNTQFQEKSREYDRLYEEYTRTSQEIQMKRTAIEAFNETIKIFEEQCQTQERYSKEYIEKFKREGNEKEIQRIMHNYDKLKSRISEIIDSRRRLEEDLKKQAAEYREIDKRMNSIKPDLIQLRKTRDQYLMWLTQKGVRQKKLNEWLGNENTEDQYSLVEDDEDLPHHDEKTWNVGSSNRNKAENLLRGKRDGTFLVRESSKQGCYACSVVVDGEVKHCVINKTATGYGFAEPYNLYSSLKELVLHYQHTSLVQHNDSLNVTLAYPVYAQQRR
T2 sequence (O00329 whole entry): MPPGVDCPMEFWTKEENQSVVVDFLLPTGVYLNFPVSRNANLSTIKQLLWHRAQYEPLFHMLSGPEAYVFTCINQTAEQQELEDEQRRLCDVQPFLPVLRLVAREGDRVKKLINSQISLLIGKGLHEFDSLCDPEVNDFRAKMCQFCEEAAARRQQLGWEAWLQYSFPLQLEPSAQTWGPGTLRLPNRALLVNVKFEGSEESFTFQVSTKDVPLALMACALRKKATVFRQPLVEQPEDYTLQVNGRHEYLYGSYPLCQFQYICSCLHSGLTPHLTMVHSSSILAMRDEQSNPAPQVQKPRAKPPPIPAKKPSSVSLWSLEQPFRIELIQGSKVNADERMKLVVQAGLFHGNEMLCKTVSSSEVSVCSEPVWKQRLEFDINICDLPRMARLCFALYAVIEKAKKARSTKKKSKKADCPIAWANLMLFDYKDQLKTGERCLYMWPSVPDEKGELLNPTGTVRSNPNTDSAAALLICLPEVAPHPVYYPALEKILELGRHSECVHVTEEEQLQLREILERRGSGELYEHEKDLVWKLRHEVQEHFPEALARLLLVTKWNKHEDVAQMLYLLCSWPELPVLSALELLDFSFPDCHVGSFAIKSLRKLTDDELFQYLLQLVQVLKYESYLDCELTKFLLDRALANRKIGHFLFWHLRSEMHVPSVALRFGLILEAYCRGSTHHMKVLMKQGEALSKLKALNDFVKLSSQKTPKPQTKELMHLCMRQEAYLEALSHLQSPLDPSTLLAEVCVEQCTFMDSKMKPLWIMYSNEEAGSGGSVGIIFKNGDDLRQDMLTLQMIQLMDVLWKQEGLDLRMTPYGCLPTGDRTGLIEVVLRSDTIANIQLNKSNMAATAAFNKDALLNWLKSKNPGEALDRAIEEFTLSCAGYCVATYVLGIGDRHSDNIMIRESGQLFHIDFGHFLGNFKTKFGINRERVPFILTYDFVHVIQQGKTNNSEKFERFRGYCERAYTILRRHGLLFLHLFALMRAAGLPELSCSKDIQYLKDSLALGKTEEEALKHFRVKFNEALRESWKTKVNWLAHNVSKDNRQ
T2 sequence (P27986 whole entry partner): as the sequence (P27986 whole entry partner) above

Structure (SMILES): C[C@H](Nc1ccc2c(c1)OCCn1cc(N3C(=O)COC[C@H]3C(F)F)nc1-2)C(N)=O [Example 68, (S)-2-((2-((S)-3-(difluoromethyl)-5-oxomorpholino)-5,6-dihydrobenzo[f]imidazo[1,2-d][1,4]oxazepin-9-yl)amino)propanamide]
- IC50 (PI3Kα; ADP-Glo, 0.1 nM enzyme, 120 min, 50 μM ATP): 0.38 nM
- Selectivity of PI3Kα vs PI3Kβ (PI3Kα; ratio of IC50 PI3Kβ to IC50 PI3Kα): 521
- Selectivity of PI3Kα vs PI3Kγ (PI3Kα; ratio of IC50 PI3Kγ to IC50 PI3Kα): 208
- Selectivity of PI3Kα vs PI3Kδ (PI3Kα; ratio of IC50 PI3Kδ to IC50 PI3Kα): 63
- IC50 (PI3Kδ): 24 nM
- IC50 [1]: 70 nM
- IC50 [2]: 113 nM
- IC50 [3]: 111 nM
- AUC(0-t) ([4]; read-out: Area under curve AUC0-t): 1320 ng·h/mL
- AUC(0-inf) ([4]; read-out: Area under curve AUC0-∞): 1340 ng·h/mL
- half-life ([4]; read-out: Half-life t1/2(h) (converted)): 1.6 h
- MRT ([4]; read-out: Mean residence time MRT): 1.8 h
- Tmax ([4]; read-out: Peak time tmax): 0.5 h
- Cmax ([4]; read-out: Plasma concentration Cmax): 641 ng/mL
